From patent publication US20250025439A1, “DERIVATIVES OF NIFUROXAZIDE FOR USE IN THE TREATMENT OF MITOCHONDRIAL DISORDERS AND NEURODEGENERATIVE DISEASES” (priority 2021, published 2025)

Columns and labels:
Experiment in all cases: Affinity chromatography with NFX-beads and mass spectrometry
Format in all cases: binding
Conditions in all cases: spectral counts, NFX coupled beads vs beads alone, human fibroblast extracts
[1] = biological target: T1, Mitogen-activated protein kinase (MAP4K4) (Homo sapiens, UniProt O95819)
T1 construct: Protein extracts from human fibroblasts were incubated with magnetic beads; endogenous in cells; host or cells: human fibroblast lysate
Procedure: (§1) Fibroblasts were trypsinized and washed with PBS 1× then incubated in lysis buffer on ice during 20 minutes (Lysis buffer: Tris-HCl pH 7.5 50 mM, EDTA 2 mM, Triton X-100 0.1% supplemented with anti-protease and anti-phosphatase (Complete-Mini™—Roche). After centrifugation 15 minutes, 13 000 rpm at 4° C., supernatant was conserved and the protein concentration was determined using the Pierce BCA assay kit (Thermo Fisher Scientific).
(§2) 10 μL of magnetic beads and NFX-beads were washed three times in Bead buffer before to be resuspended 100 μL of Bead buffer (Bead buffer: Tris-HCl pH 7.5 50 mM, NaCl 150 mM, Triton X-100 0.1%, supplemented with anti-protease and anti-phosphatase (Complete-Mini™—Roche)) thanks to a magnetic rack (DynaMag-2 Ref 12321D Life Technologies). 800 μg of proteins were mixed with 100 μL of diluted beads and the final volume was set to 800 μL with Bead buffer. The proteins and the beads were incubated 30 minutes with rotation in a cold room. Using a magnetic rack, the beads were separated from the protein extract and washed three time with Bead buffer before to be resuspended in 75 μL of Laemmli2X. Laemmli with beads was put 5 minutes at 95° C. to eluate the proteins and the beads were discarded using a magnetic rack. 35 μL of the eluted proteins were subjected to SDS-PAGE and silver coloration (ProteoSilver™ Silver Stain Kit—Sigma Aldrich). Bands of interest were extracted from the gel and subjected to mass spectrometry.
(§3) Mass spectrometric identification and quantification of the pulled down proteins were performed as previously described (Shrivastava et al., EMBO, 2019, 38:e99871). The raw data were cleaned using the following pathway. First, only the proteins found to interact with the NFX coupled beads in the three replicates were kept for further analysis. […] The final proteins were then classified based on the fold chance and the p-value.
(§4) Identification of the NFX intracellular targets is a crucial step in understanding its mechanisms of action and to be able to improve its efficiency on a rational basis. To purify NFX-binding proteins, affinity chromatography purification was performed using magnetic beads. Protein extracts from human fibroblasts were incubated with magnetic beads alone or to which NFX has been covalently coupled (Scheme 1). Eluted fractions were subjected to SDS-PAGE electrophoresis and silver staining (FIG. 9A). The pattern was clearly different between eluted proteins from NFX-beads compared to those eluted form beads alone with 13 bands either appeared or were of a higher intensity with the NFX-beads (FIG. 9B). Excised bands were subjected to proteolytic digestion and mass spectrometry.

[2] = biological target: T2, Kinesin-1 heavy chain (KIF5B) (Homo sapiens, UniProt P33176)
T2 construct: Protein extracts from human fibroblasts were incubated with magnetic beads; endogenous in cells; host or cells: human fibroblast lysate
T2 sequence (P33176 1-963): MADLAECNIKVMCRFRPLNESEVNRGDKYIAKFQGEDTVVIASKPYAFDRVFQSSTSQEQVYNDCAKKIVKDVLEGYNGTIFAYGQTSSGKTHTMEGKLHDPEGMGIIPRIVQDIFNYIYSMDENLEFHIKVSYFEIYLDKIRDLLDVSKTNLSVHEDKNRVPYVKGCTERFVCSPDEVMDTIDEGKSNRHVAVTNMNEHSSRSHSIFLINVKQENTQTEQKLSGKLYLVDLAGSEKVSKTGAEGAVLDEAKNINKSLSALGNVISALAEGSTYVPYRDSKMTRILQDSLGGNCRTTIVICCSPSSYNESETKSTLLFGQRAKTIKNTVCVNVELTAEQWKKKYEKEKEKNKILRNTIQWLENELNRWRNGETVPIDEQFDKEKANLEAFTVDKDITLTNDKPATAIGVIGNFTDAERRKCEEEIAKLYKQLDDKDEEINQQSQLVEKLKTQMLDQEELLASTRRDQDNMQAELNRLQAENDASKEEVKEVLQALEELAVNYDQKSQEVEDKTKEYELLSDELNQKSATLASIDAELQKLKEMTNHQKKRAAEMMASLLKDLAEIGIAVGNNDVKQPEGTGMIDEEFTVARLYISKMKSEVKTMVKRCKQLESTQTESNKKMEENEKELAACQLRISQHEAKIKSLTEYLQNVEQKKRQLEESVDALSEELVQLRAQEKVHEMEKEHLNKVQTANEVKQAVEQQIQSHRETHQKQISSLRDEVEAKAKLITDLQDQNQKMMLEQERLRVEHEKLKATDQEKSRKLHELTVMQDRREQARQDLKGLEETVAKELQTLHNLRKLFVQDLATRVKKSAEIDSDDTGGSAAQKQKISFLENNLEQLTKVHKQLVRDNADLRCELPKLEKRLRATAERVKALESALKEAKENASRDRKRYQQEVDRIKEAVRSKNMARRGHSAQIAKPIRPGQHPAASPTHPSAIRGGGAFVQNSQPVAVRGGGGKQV
Procedure: as §1, §2, §3, §4

[3] = biological target: T3, Unconventional myosin-IXb (MYO9B) (Homo sapiens, UniProt Q13459)
T3 construct: Protein extracts from human fibroblasts were incubated with magnetic beads; endogenous in cells; host or cells: human fibroblast lysate
Procedure: as §1, §2, §3, §4

T1 sequence (O95819 whole entry): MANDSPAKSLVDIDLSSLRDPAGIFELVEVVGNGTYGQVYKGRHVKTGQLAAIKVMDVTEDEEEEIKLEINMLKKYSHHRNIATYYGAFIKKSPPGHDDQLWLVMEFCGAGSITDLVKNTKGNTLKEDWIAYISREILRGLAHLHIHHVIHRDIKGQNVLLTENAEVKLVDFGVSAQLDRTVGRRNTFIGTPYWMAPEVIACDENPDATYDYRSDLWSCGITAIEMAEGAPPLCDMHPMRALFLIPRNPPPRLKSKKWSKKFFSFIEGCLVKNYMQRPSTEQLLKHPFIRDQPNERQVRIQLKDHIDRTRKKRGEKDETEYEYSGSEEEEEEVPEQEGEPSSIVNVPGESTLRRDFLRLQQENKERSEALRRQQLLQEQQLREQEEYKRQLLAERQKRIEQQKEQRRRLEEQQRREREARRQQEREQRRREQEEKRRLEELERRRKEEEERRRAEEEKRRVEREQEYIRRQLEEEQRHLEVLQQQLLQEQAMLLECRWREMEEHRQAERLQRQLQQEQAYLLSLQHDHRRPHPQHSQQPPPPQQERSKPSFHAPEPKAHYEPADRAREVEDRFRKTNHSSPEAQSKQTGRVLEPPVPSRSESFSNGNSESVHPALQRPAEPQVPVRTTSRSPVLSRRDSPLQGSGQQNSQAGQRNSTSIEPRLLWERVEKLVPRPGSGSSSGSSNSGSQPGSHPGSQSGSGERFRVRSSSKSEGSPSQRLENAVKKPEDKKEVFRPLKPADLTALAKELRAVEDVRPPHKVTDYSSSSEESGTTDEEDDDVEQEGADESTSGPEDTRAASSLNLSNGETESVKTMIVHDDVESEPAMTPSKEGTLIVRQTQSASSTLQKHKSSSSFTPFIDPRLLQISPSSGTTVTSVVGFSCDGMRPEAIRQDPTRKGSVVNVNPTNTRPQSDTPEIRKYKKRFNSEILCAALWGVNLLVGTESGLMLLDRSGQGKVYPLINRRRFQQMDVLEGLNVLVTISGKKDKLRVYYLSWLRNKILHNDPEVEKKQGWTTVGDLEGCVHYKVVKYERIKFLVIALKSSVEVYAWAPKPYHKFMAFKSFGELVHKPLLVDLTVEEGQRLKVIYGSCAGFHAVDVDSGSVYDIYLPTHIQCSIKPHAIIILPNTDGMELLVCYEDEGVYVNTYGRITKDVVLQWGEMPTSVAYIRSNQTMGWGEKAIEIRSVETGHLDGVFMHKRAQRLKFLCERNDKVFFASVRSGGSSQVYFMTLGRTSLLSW
T3 sequence (Q13459 whole entry): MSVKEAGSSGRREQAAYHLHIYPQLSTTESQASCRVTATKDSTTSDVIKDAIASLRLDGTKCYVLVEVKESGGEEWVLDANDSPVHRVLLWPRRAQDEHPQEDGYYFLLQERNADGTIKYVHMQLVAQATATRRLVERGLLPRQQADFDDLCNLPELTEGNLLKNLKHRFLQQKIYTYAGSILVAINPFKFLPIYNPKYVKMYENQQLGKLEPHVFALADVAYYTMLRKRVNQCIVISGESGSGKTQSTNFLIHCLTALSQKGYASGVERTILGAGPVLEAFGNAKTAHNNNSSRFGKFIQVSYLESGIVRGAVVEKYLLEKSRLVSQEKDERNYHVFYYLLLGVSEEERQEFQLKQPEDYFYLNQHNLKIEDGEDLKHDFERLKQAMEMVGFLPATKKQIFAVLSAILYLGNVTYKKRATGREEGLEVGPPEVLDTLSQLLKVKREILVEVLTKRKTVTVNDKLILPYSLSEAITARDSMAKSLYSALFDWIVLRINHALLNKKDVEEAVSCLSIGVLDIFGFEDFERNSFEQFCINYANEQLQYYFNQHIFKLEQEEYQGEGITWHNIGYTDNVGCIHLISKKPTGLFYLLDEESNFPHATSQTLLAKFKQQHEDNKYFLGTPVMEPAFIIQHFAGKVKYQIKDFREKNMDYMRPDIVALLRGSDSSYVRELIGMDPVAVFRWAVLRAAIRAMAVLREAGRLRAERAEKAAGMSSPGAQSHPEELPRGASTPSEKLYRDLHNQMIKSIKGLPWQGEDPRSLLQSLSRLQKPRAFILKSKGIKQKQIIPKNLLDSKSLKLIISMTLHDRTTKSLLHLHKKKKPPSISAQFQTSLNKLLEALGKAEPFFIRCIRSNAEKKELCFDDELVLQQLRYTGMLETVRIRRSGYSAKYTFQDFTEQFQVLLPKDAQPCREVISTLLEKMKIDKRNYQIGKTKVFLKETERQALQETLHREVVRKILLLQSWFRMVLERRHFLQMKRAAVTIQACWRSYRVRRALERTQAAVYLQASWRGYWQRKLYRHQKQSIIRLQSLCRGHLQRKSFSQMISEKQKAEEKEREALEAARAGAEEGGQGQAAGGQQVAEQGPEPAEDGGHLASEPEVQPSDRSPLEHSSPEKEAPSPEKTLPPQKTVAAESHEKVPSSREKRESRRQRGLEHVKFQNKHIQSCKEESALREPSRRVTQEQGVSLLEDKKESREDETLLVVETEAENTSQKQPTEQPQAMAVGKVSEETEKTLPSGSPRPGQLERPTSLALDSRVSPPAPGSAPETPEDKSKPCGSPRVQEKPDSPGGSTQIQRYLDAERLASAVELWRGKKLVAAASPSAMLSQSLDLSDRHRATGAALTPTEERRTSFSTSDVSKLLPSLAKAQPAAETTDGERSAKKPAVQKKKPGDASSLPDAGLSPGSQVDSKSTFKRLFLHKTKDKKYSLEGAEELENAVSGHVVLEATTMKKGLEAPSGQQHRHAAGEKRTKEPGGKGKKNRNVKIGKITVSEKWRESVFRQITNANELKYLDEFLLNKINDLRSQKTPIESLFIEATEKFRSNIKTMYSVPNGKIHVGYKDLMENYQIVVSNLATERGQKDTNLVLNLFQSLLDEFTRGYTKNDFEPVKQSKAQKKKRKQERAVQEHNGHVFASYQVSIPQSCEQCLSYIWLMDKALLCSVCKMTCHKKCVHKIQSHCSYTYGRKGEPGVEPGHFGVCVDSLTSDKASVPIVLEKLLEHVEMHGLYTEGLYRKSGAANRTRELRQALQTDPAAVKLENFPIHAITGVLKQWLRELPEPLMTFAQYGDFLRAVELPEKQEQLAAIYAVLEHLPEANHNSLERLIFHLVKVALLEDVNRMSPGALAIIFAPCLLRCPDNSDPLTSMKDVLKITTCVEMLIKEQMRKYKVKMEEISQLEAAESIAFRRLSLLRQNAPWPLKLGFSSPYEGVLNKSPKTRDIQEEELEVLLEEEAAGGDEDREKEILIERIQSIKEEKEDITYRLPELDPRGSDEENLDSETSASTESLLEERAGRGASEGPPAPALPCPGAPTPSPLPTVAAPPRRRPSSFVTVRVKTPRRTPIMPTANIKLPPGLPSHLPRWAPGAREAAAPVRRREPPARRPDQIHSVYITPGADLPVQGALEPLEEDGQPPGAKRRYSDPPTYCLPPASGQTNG

O=C(N/N=C/c1ccc([N+](=O)[O-])o1)c1ccc(O)cc1 [NFX, (E)-4-hydroxy-N′-((5-nitrofuran-2-yl)methylene)benzohydrazide]
Fold change [1]: 29.76
Fold change [2]: 121.67
Fold change [3]: 34.52
